In test [1] the test system is middle cerebral artery (MCA) occlusion model mice. As to the kind of experiment: Evaluation of therapeutic effect on ischemia-reperfusion brain damage (MCA occlusion model, single i.v. dose after reperfusion). The test is classed as in vivo, male ddY mice. The following applies: infarct volume at 24 h. From the text: Thus, a model evaluated for therapeutic effect of ischemia-reperfusion brain damage was constructed by administering a drug after reperfusion in the MCA occlusion model, and the effect of the test compound as a therapeutic drug was investigated: the therapeutic effect evaluation model reflects the direct damage by reactive oxygen species (ROIs) and the process to the secondary oxidative stress and inflammatory response due to ROIs. (2) Evaluation Method for Therapeutic Effect of Ischemia-Reperfusion Brain Damage With the use of male ddY mice (25-30 g, 6-7 weeks old), middle cerebral artery (MCA) occlusion model mice were prepared according to the method of Koizumi et al. (“Strokes”, Vol. 8, pp 1-8, 1986). The MCA occlusion was 4 hours, and a single dose of drug solution was intravenously administered 6 or 10 hours after the start of ischemia (i.e., 2 hours or […]). Brain slice samples were prepared 24 hours after the start of infarction and stained with triphenyltetrazolium chloride (TTC staining), and then the cerebral infarct volume was measured from the brain slice samples by image processing.

For test [2] the test system is unchanged. Briefly: Evaluation of preventive effect on ischemia-reperfusion brain damage (MCA occlusion model, drug i.v. immediately before and 3 h after infarction). The test is classed as in vivo, male ddY mice. The following applies: 4 h MCA occlusion, infarct volume 24 h after start of occlusion (TTC). Here is the method: In addition, a drug was administered immediately before infarction and during infarction in the MCA occlusion model, and the effect as a preventive drug was also investigated.
(1) Evaluation Method for Preventive Effect of Ischemia-Reperfusion Brain Damage
With the use of male ddY mice (25-30 g, 6-7 weeks old), middle cerebral artery (MCA) occlusion model mice were prepared according to the method of Koizumi et al. (“Strokes”, Vol. 8, pp 1-8, 1986). The MCA occlusion was carried out for 4 hours, a test drug solution was intravenously administered twice, namely, immediately before infarction and 3 hours after infarction. Brain slice samples were prepared 24 hours after the start of infarction and stained with triphenyltetrazolium chloride (TTC staining), and then the cerebral infarct volume was measured from the brain slice samples by image processing.

The subject of test [3] is mouse middle cerebral artery (MCA) occlusion model. The settings on record: i.v. twice, immediately before infarction and during infarction; prophylactic; cited from earlier work.
[4] abbreviates: single i.v. dose 20 μmol/kg 6 hours after start of ischemia.
The mark [5] stands for this setting: i.v. 20 mmol/kg×2 doses (so in the source).
[6] abbreviates: single i.v. dose 2 μmol/kg 6 hours after start of ischemia.

Take “2R-γ-tocopheryl phosphate disodium salt [γ-TPS]”: in test [1] (setting [4]), the “suppression of the infarct volume” value is recorded as “a significant suppression of the infarct volume was observed”.

For the compound `CC(C)=CCC/C(C)=C/CC/C(C)=C/CO` [FO, (2E,6E) farnesol, reference compound], the “suppression of the infarct volume” value in test [2] (i.v. 2 μmol/kg×2 doses) was “significant suppression of the infarct volume was not observed”; in test [2] (i.v. 20 μmol/kg×2 doses) it was “significantly suppressed”.

For the compound `CC(C)=CCCC(C)=CCCC(C)=CCOC(=O)CN(C)C.Cl` [FODMG, farnesol N,N-dimethylglycinate hydrochloride], the “suppression of the infarct volume” value in test [1] (setting [4]), in test [1] (single i.v. dose 20 μmol/kg 10 hours after start of ischemia), in test [2] (i.v. 2 μmol/kg×2 doses) and in test [2] (setting [5]) was “significantly suppressed” throughout.

For the compound `CC1=NN(c2ccccc2)C(=O)C1` [edaravone, reference compound], the “suppression of the infarct volume” value in test [2] (i.v. 2 μmol/kg×2 doses) is given as “significantly suppressed”; in test [2] (i.v. 20 μmol/kg×2 doses), “a significant effect was not observed”.

On to `CC(C)=CCC/C(C)=C/CC/C(C)=C/CC[C@]1(C)CCc2c(C)c(O)c(C)c(C)c2O1` [α-T3, 2R-α-tocotrienol], for which the infarct inhibitory effect entry in test [3] is given as “excellent infarct inhibitory effect”.

Consider `CC(C)=CCC/C(C)=C/CC/C(C)=C/CC[C@]1(C)CCc2c(C)c(OC(=O)CN(C)C)c(C)c(C)c2O1.Cl` [α-T3DMG, 2R-α-tocotrienyl N,N-dimethylglycinate hydrochloride], for which the “suppression of the infarct volume” value in test [1] (setting [6]) is “significantly suppressed”; in test [1] (setting [4]) it was “significantly suppressed”; in test [2] (i.v. 2 μmol/kg×2 doses), “a significant suppression of the infarct volume was observed”; in test [2] (i.v. 20 μmol/kg×2 doses), “a significant suppression of the infarct volume was observed”.

Consider `Cc1c(C)c2c(c(C)c1O)CC[C@@](C)(CCC[C@H](C)CCC[C@H](C)CCCC(C)C)O2` [α-Toc, 2R-α-tocopherol, reference compound], for which the “suppression of the infarct volume” value was “a significant suppression of the infarct volume was not observed” in test [2] (i.v. 2 μmol/kg×2 doses) and “significantly suppressed” in test [2] (i.v. 20 μmol/kg×2 doses).

Regarding `Cc1c(OC(=O)CN(C)C)cc2c(c1C)O[C@](C)(CCC[C@H](C)CCC[C@H](C)CCCC(C)C)CC2.Cl` [γ-TDMG, 2R-γ-tocopheryl N,N-dimethylglycinate hydrochloride], the “suppression of the infarct volume” value in test [1] (setting [6]) was “significantly suppressed”; in test [1] (setting [4]), “significantly suppressed”; in test [2] (i.v. 2 μmol/kg×2 doses) it was “a significant suppression of the infarct volume was observed”; in test [2] (setting [5]), “a significant suppression of the infarct volume was observed”.

For `Cc1c(O)cc2c(c1C)O[C@](C)(CCC[C@H](C)CCC[C@H](C)CCCC(C)C)CC2` [γ-Toc, 2R-γ-tocopherol, reference compound], the “suppression of the infarct volume” value in test [1] (setting [6]), in test [1] (setting [4]), in test [2] (i.v. 2 μmol/kg×2 doses) and in test [2] (i.v. 20 μmol/kg×2 doses) was “significantly suppressed” throughout. Besides, in test [3], the infarct inhibitory effect entry is listed as “excellent infarct inhibitory effect”.

Source of the values: patent US8242302B2, “Inhibitor of ischemic disorders” (Fukuoka University, priority 2007, dated 2012).
